Results taken from patent US9980966B2, “Combinations of cancer therapeutics” (Merck Patent GmbH, priority 2014, dated 2018).

Assays:
[1] = tested on: Her2+ patient-derived breast model "CTG-0033"; assay: Patient derived xenograft model of breast cancer, tumor volume efficacy study; assay type: in vivo, mice
From the text: Female nude (Harlan; nu/nu) between 5-7 weeks were implanted subcutaneously with tumor fragments from the Her2+ patient-derived breast model “CTG-0033” (passage 3, i.e. the model has been serially passaged/grown from the original host 3 times) harvested from host animals. When host tumors reached 1-1.5 cm^3, tumors were harvested for re-implantation into animals to be used for the efficacy study. When the CTG-0033 (passage 4) tumors reached approximately 190 mm^3; animals were randomized by tumor volume into treatment or control groups (n=10) and dosing was initiated on Day 0. […] Tumor volumes were recorded twice per week. […] The other treatments were stopped at Day 75 and tumors were allowed to grow back for over 2 months with mice receiving no treatment.

[2] = tested on: broad panel of cancer cell lines; assay: Anti-tumor activity of the single agent in a panel of cancer cell lines; assay type: cell-based
Procedure: The cell lines were grown in the media recommended by the suppliers in the presence of 100 U/ml penicillinG and 100 μg/ml streptomycin supplied with 10% FCS (PAN, Germany).
Cell growth and treatment were performed in 96-well microtitre plates. Cells harvested from exponential phase cultures by trypsinization were plated in 190 μl of media at optimal seeding densities. The optimal seeding densities for each cell line were determined to ensure exponential growth for the duration of the experiment. All cells growing without anticancer agents were sub-confluent by the end of the treatment as determined by visual inspection. Compound dilutions in DMSO were performed in 96-well rigid PCR plates. Compounds were then diluted […] in RPMI medium. 190 μl of cells, after a 24-hour pre-growth period, were treated by mixing with 10 μl of the compound-containing media (resulting in a final DMSO concentration of 0.1%). The cells were allowed to grow at 37° C. for 72 hours. In addition, all experiments contained a few plates with cells that were processed for measurement immediately after the 24 hours recovery period. These plates contained information about the cell number that existed before treatment, at time zero, and served to calculate the cytotoxicity and/or growth inhibitory effects. […] Measurement of optical density was performed at 560 nm on a Victor 2 plate reader (Perkin Elmer, Germany). […]

## NC(=O)c1cccc2c(N[C@H](CN3CCC3)c3ccc(Cl)c(C(F)(F)F)c3)ncnc12 [Compound A, 4-[(S)-2-Azetidin-1-yl-1-(4-chloro-3-trifluoromethyl-phenyl)-ethylamino]-quinazoline-8-carboxylic acid amide]
[1]; Day 55, Compound A 30 mg/kg QD PO, Herceptin 15 mg/kg QW IV in the combination, CTG-0033 tumors in female nude mice
  tumor regression: 50%
[1]; Day 76, after treatment until Day 75
  tumor regression: −66%
[1]; after 71 days of regrowth period after cessation of treatment, log rank sum test p<0.05
  number of treated tumors that grew back: 6
[2]
  anti-tumor activity against a broad panel of cancer cell lines: potent anti-tumor activity
[2]; breast cancer cells, glioblastoma cells, endometrial cancer cells and ovarian carcinoma cells
  sensitivity of cancer cells to the compound: particularly sensitive
